Results: patent US12642801B2, “Pharmaceutical composition for preventing or treating rheumatoid arthritis and health functional food” (SEOUL NATIONAL UNIVERSITY R&DB FOUNDATION, priority 2021, dated 2026)

What was measured:
CIA mice [1] = assay: Rheumatoid arthritis clinical score in CIA mice; type: in vivo; settings: 10 mg/kg or 20 mg/kg, score 0-4 per paw, four paws combined, FIG. 6
Protocol: (§1) In the examples of the present invention, efficacies of the composition of the present invention were investigated by establishing animal models CIA or SIA with animal diseases similar to rheumatoid arthritis of the human body. Specifically, 100 μl of 250 μg or 500 μg of the compound YKL-05-099 (CAS No.: 1936529-65-5) shown in FIG. 1 was intraperitoneally (i.p.) administered to a mouse weighed 25 g (that is, 10 mg or 20 mg per 1 kg) once a day.
(§2) With regard to rheumatoid arthritis animal models CIA and SIA, respectively, rheumatoid arthritis clinical score was investigated. Disease-free mice without administration of antigen were used as a negative control. The clinical scores were determined depending on significance as follows: 0 (no symptom); 1 (slight edema on the soles or toes); 2 (significant edema throughout the soles and toes); 3 (significant to serious edema throughout the paw); 4 (serious edema and distortion throughout the paw), and then, the results for four paws were combined. FIG. 6 illustrates the results for CIA mice, and FIG. 7 illustrates the results for SIA mice, respectively.

CIA mice [2] = assay: Edema of paws and joints / paw thickness in CIA mice; type: in vivo
Protocol: In the present invention, “CIA” is used for an animal model suffering from rheumatoid arthritis and means “collagen-induced arthritis.”
as §1
(§3) After i.p. administration of YKL-05-099 in an amount of 10 mg/kg or 20 mg/kg to mice having rheumatoid arthritis once a day, improvement of edema in the paws was investigated. For definite measurement and comparison, the most swollen portion of the paw was measured in multiple times, and collected numerical values of paw thickness were recorded and compared. Disease-free mice without administration of antigens were used as a negative control.
(§4) FIG. 4 illustrates measured results of the paw thickness of CIA mice while FIG. 5 illustrates measured results of the paw thickness of SIA mice, respectively.

[3] = tested on: spleen and the lymph nodes; assay: Expansion of spleen and lymph tissues (inguinal and mesenteric lymph nodes); type: in vivo, mice; settings: compared to the control, FIG. 8
Protocol: In the examples of the present invention, efficacies of the composition of the present invention were investigated by establishing animal models CIA or SIA with animal diseases similar to rheumatoid arthritis of the human body. Specifically, 100 μl of 250 μg or 500 μg of the compound YKL-05-099 (CAS No.: 1936529-65-5) shown in FIG. 1 was intraperitoneally (i.p.) administered to a mouse weighed 25 g (that is, 10 mg or 20 mg per 1 kg) once a day. […] Disease-free mice without administration of antigens were used as a negative control, and the compared results are shown in FIG. 8.

[4] = tested on: CD11b+ F4/80+ cells (macrophage cells); assay: Macrophage cell level in spleen cells of CIA mice by flow cytometry; type: in vivo; settings: for ratio of CD11b+ F4/80+ cells as a marker for macrophage cells: spleen live cells, CIA+Veh 1.854±0.41%, sham 0.355±0.08%
Protocol: In order to confirm mitigation effects of increase in immune active macrophage cells in the spleen, after i.p. administration of YKL-05-099 in an amount of 10 mg/kg or 20 mg/kg to the rheumatoid arthritis model CIA mice once a day, spleen cells were isolated at a time of sacrificing the mice to investigate macrophage cell levels. FIGS. 13A and 13B illustrate the above results of investigating macrophage cell levels. Immune cell assay was performed through flow cytometry, and the experiment was implemented according to product instructions of Invitrogen Co.
Specifically, the spleen cells were isolated to prepare 1×10^6 cells/100 μl of single cells, followed by staining live/dead cells using fixable viability dye (Invitrogen, eFluor™780, 65-0865-14), and then blocking the same using anti-CD16/32 (Invitrogen, 14-0161). Following this, the above product was stained using anti-CD11b (Invitrogen, M1/70) and anti-F4/80 (Invitrogen, BM8). The stained cells were subjected to measurement of a ratio of CD11b^+ F4/80^+ cells as a marker for macrophage cells in live cells isolated through flow cytometry.
From the result of measuring a ratio of CD11b^+ F4/80^+ cells as a marker for macrophage cells, it was confirmed that sham is 0.355±0.08%, CIA+Veh is 1.854±0.41%, CIA+YKL-05-099 10 mg/kg is 1.043±0.30%, CIA+YKL-05-099 20 mg/kg is 0.975±0.12%, respectively. Using unpaid parametric Welch's corrected t-test (two-tailed), p-value was indicated. With regard to statistically significant levels, p-value is 0.05 or less, wherein significance was represented by *p<0.05, **p<0.01 and ***p<0.001. CIA+Veh vs sham p-value is 0.0009, CIA+YKL-05-099 20 mg/kg vs CIA+Veh p-value is 0.0057, CIA+YKL-05-099 10 mg/kg vs sham p-value is 0.0019, CIA+YKL-05-099 20 mg/kg vs sham p-value is 0.0002, and CIA+YKL-05-099 10 mg/kg vs CIA+Veh p-value is 0.0076.

SIA mice [5] = assay: Edema of paws and joints / paw thickness in SIA mice; type: in vivo
Protocol: In the present invention, “SIA” is used for an animal model suffering from rheumatoid arthritis and means “serum transfer arthritis.”
as §1, §3, §4

SIA mice [6] = assay: Rheumatoid arthritis clinical score in SIA mice; type: in vivo; settings: 10 mg/kg or 20 mg/kg, score 0-4 per paw, four paws combined, FIG. 7
Protocol: as §1, §2

[7] = tested on: TNF-α, IL-6, IFN-γ, IL-17a; assay: Inflammatory cytokines in peripheral blood by ELISA, SIA mice; type: in vivo; settings: ELISA at time of sacrifice, FIG. 11
Protocol: as §1
(§5) After administering YKL-05-099 to the rheumatoid arthritis animal model, essential inflammatory cytokines to induce rheumatoid arthritis such as TNF-α and IL-6, the representative immunoreactive cytokine of TH1 such as IFN-γ, and the representative immunoreactive cytokine of TH17 such as 1L-17a within peripheral blood at a time of sacrificing the mouse were subjected to analysis through enzyme linked immunosorbent assay (ELISA). Specifically, cytokine analysis was implemented using ELISA kit products according to instructions of Invitrogen Co., wherein the used product serial numbers are anti-IFN-γ (88-7314), anti-TNF-α (88-7324), anti-IL-17a (88-7371) and anti-IL-6 (88-7064). Disease-free mice without administration of antigens were used as a negative control. […] FIG. 10 illustrates measured results of cytokines in CIA mice while FIG. 11 illustrates measured results of cytokines in SIA mice, respectively.

CIA mice [8] = assay: Bone loss around paw joint (micro CT) in CIA mice; type: in vivo; settings: bone amount in the paw joint, FIG. 9
Protocol: FIG. 9 is photographs taken through micro CT and graphs showing effects of inhibiting reduction of bone loss around the joints in the embodiments of the present invention.
as §1

[9] = tested on: TNF-α, IL-6, IFN-γ, IL-17a; assay: Inflammatory cytokines in peripheral blood by ELISA, CIA mice; type: in vivo; settings: ELISA at time of sacrifice, FIG. 10
Protocol: as §1, §5

CD4+ Foxp3+ cells (Treg) = assay: Treg cell level in spleen cells of CIA mice by flow cytometry; type: in vivo; settings: for ratio of CD4+ Foxp3+ cells as a marker for Treg: spleen live cells, CIA+Veh 12.24±0.34%, sham 10.725±0.53%
Protocol: After i.p. administration of YKL-05-099 in an amount of 10 mg/kg or 20 mg/kg to the rheumatoid arthritis model CIA mice once a day, spleen cells were isolated at a time of sacrificing the mice to investigate Treg cell levels. Immune cell assay was performed through flow cytometry, and the experiment was implemented according to product instructions of Invitrogen Co. Specifically, the spleen cells were isolated to prepare 1×10^6 cells/100 μl of single cells, followed by staining live/dead cells using fixable viability dye (Invitrogen, eFluor™780, 65-0865-14), and then blocking the same using anti-CD16/32 (Invitrogen, 14-0161). Following this, the above product was stained using anti-CD4 (Invitrogen, RM4-5, mice) and anti-Foxp3 (Invitrogen, FJK-16s, mice). The stained cells were subjected to measurement of a ratio of CD4^+ Foxp3^+ cells as a marker for Treg in live cells isolated through flow cytometry.
FIGS. 12A and 12B illustrate the above measured results. From the results of measuring a ratio of CD4^+ Foxp3^+ cells as a marker for Treg, it was confirmed that sham (disease-free mice) is 10.725±0.53%, CIA+Veh is 12.24±0.34%, CIA+YKL-05-099 10 mg/kg is 14.2±1.28%, CIA+YKL-05-099 20 mg/kg is 14.98±1.16%, respectively. Using unpaid parametric Welch's corrected t-test (two-tailed), p-value was indicated. With regard to statistically significant levels, p-value is 0.05 or less, wherein significance was represented by *p<0.05, **p<0.01 and ***p<0.001. Sham vs CIA+Veh p-value is 0.0045, CIA+YKL-05-099 10 mg/kg vs CIA+Veh p-value is 0.0119, CIA+YKL-05-099 20 mg/kg vs CIA+Veh p-value is 0.0046, CIA+YKL-05-099 10 mg/kg vs sham p-value is 0.0005, and CIA_YKL-05-099 20 mg/kg vs sham p-value is 0.0004.

Structure (SMILES): COc1ccc(N2C(=O)N(c3c(C)cccc3Cl)Cc3cnc(Nc4ccc(C5CCN(C)CC5)cc4OC)nc32)nc1 [YKL-05-099]
- rheumatoid arthritis clinical scores (CIA mice [1]): significantly reduced
- edema of the paws and around the joints (visually observed) (CIA mice [2]; 10 mg/kg or 20 mg/kg i.p. once a day, compared to the control, FIG. 2): remarkably improved
- paw thickness (CIA mice [2]; vs vehicle administered group, FIG. 4): remarkably thinner
- expansion of the spleen and the lymph nodes [3]: greatly suppressed
- ratio of macrophage cells compared to CIA+Veh ([4]; 10 mg/kg and 20 mg/kg): statistically significant decrease
- ratio of CD11b+ F4/80+ cells as a marker for macrophage cells ([4]; 10 mg/kg i.p. once a day, p vs Veh 0.0076): 1.043±0.30%
- ratio of CD11b+ F4/80+ cells as a marker for macrophage cells ([4]; 20 mg/kg i.p. once a day, p vs Veh 0.0057): 0.975±0.12%
- edema of the paws and around the joints (visually observed) (SIA mice [5]; 10 mg/kg or 20 mg/kg i.p. once a day, compared to the control, FIG. 3): remarkably improved
- paw thickness (SIA mice [5]; vs vehicle administered group, FIG. 5): remarkably thinner
- rheumatoid arthritis clinical scores (SIA mice [6]): significantly reduced
- inflammatory cytokines (TNF-α, IL-6, IFN-γ, IL-17a) within peripheral blood [7]: greatly suppressed
- bone loss in paw joint (CIA mice [8]): significantly inhibited
- inflammatory cytokines (TNF-α, IL-6, IFN-γ, IL-17a) within peripheral blood [9]: greatly suppressed
- ratio of Treg cells compared to CIA+Veh (CD4+ Foxp3+ cells (Treg); 10 mg/kg and 20 mg/kg): statistically significant increase
- ratio of CD4+ Foxp3+ cells as a marker for Treg (CD4+ Foxp3+ cells (Treg); 10 mg/kg i.p. once a day, p vs Veh 0.0119): 14.2±1.28%
- ratio of CD4+ Foxp3+ cells as a marker for Treg (CD4+ Foxp3+ cells (Treg); 20 mg/kg i.p. once a day, p vs Veh 0.0046): 14.98±1.16%
